Experiment [1] relates to Trex1-D18N autoimmune mouse model. As to the kind of experiment: Inflammatory inhibitory effect of oral administration in Trex1-D18N autoimmune mouse model. The format is in vivo. Conditions: I-77 20mpk, daily for one month, qPCR of Cxcl10/IP10, ISG15, ISG56, IFN-β, IFN-γ, STAT2 in heart, Figure 10. As for the experimental part: The model mice were purchased from GEMPHARMATECH CO., LTD., and the wild-type C57/BL6 mice were also purchased from GEMPHARMATECH CO., LTD.. Compound preparation method: 2 mg of I-77 powder was taken, 12 µL of PEG400 was added thereto and ultrasonically dissolved, and then 8 µL of Tween 80 was added and ultrasonically mixed to prepare a 100 mg/mL stock solution.
Experimental grouping: Wild type mice control group (Control) was administered vehicle solvent; The model mice group (Model) was administered vehicle solvent; The treatment group (I-77) was administered I-77 (20mpk, PO) to the model mice. The mice in the I-77 group were intragastrically administered 200 µL of I-77 solution at a final concentration of […] daily, which was prepared by dilution with double-distilled water; The same dose of vehicle solvent was administered to the remaining groups continuously for one month. The heart was collected from the experimental endpoint samples. RNA extraction was performed on heart samples, and the RNA was reversed to cDNA. Changes in gene expression of inflammation related cytokines (Cxcl10/IP10, ISG15, ISG56, IFN-β, IFN-γ, and STAT2) in the tissues were detected using qPCR technology. Statistical method: One way ANOVA, *P<0.05, **P<0.01, ***P<0.001, ***P<0.0001.

The subject of experiment [2] is ISG gene expression induced by MSA-2 in human THP1-Blue-ISG cells. The experiment is described as follows: Inhibition of MSA-2-induced ISG gene expression in human THP1-Blue-ISG cells (Quanti-Blue, OD650). Conditions: STING agonist MSA-2 10 µM, incubated for 24 hours. The format is cell-based.
The subject of experiment [3] is DMXAA induced ISG gene expression in mouse RAW-Lucia cells. The experiment is described as follows: Inhibition of DMXAA-induced ISG gene expression in mouse RAW-Lucia cells (QUANTI-Luc). The format is cell-based. Conditions: STING agonist DMXAA 50 µM, incubated for 24 hours. Put shortly: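 RAW-Lucia cells (4×10^5/mL) stimulated with 50 µM DMXAA and co-incubated 24 h with compound at 10 to 0.004 µM (3-fold steps, 0.1% DMSO). Secreted luciferase in supernatant read with QUANTI-Luc; inhibition calculated against DMXAA-only control, IC50 from four-parameter variable-slope fit constrained 0–100.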

The text below walks through data of patent publication EP4748844A1, “AZETIDINE COMPOUND AND MEDICAL USE THEREOF” (SHANGHAI INSTITUTE OF MATERIA MEDICA, CHINESE ACADEMY OF …, priority 2023, dated 2025).

`CC1(C)C(=O)N(Cc2ccsc2)c2cc(C(=O)Nc3c[nH]c4ccccc34)ccc21` [Example I-77, N-(1H-indol-3-yl)-3,3-dimethyl-2-oxo-1-(thien-3-ylmethyl)indolin-6-carboxamide]: in experiment [1], the “cardiac inflammation related cytokine expression in the Trex1-D18N model” value is reported as “significantly inhibit the upregulation”. Besides, the IC50 came to 0.162 µM in experiment [2] and 0.00228 µM in experiment [3].
